# Laboratory results reported in US9549945B2, “Use of alkylated semi-synthetic glycosaminoglycosan ethers for the treatment of inflammation” (University of Utah Research Foundation, priority 2008, dated 2017).
# Entries after “also recorded” stand apart in the source; their conditions may differ.
# What was measured:
# [1] = test system: RAGE expression in ARPE-19 cells; assay: AGE (CML-BSA)-induced RAGE expression in ARPE-19 cells (immunoblot); format: cell-based, human; conditions: ARPE-19 cells on CML-BSA coated plates
# Description: Experiments studying the biology of RAGE in cultured RPE cells using the ARPE-19 human RPE cell line were conducted. As shown in immunoblots (FIG. 17), ARPE-19 cells express at least 4 isoforms of RAGE ranging from 45-50 kDa in cell lysates, and secrete these isoforms into conditioned media. […] Because RAGE ligation activates the transcription factor NF-κB, enhanced expression of RAGE greatly promotes pro-inflammatory signaling. […] This would prevent “feed-forward” pro-inflammatory increases in RAGE expression itself by RAGE ligation.
# ARPE-19 cells = assay: AGE-BSA induced apoptosis of ARPE-19 cells (Live/Dead stain); format: cell-based, human; conditions: AGE-BSA 25 μM, 40 h; test substance 200 μM
# Description: The ability of AGE products to induce RPE cell apoptosis was investigated. ARPE-19 cells were grown to confluence on round coverslips, then transferred to new dishes for exposure to 25 μM AGE-BSA for 40 h. Apoptosis was then assayed with Molecular Probes Fixable Live/Dead Cell Stain Kit (L11101, Eugene, Oreg.). […] Nuclei are stained […] with DAPI; dead cells are stained green. A. BSA control. Some dead cells are noted at the edges of the coverslip, but live and dead cells are interspersed at the interface. B. AGE-BSA (25 μM). Significant cell death is seen around the edges, and the boundary between live and dead cells is stark. C. AGE-BSA (25 μM)+ODSH (200 μM).
# [2] = test system: LL-37 induced skin inflammation; assay: SAGE topical treatment in LL-37 rosacea model; format: in vivo, Balb/c mice; conditions: topical administration
# Description: Balb/c mice were shaved […] area of skin on the back. We then began topical application of a hyaluronan-cased emollient containing 5% SAGEs (active emollient) or hyaluronic acid based emollient alone to this area of skin every 12 hours. Twenty-four hours later, we injected 40 μL of vehicle (PBS) or cationic peptide (at 320 μM concentration) subcutaneously into the shaved skin in the manner described previously. Injections and topical emollient applications were repeated every 12 h thereafter. Forty-eight hours after the initial injection (four injections in total), animals were lightly anesthetized as described previously. […] The intensity of erythema was assessed as a redness score (from 1 to 5), and the area of erythema was measured with calipers. […]
# For each mouse, tissue biopsies (6 mm diameter hole punch) were taken immediately, weighted, frozen and stored at −80° C. Tissue MPO activity was measured using a method by Suzuki et. al. (Suzuki K, Ota H, Sasagawa S, Sakatani T, Fujikura T. Assay method for myeloperoxidase in human polymorphonuclear leukocytes. Anal Biochem 132:345-352, 1983) as modified by Young et. al. (Young J M, Spires D A, Bedord C J, Wagner B, Ballaron S J, De oung LM. The mouse ear inflammatory response to topical arachidonic acid. J Invest Dermatol 82:367-371, 1984). […] MPO enzyme activity was assessed at an absorbance wavelength of 630 nm. […]
# [3] = target: T1, Hageman factor (Factor XII) (Homo sapiens, UniProt P00748); assay: Hageman factor (Factor XII) activation in pooled human plasma, amidolytic activity; format: biochemical; conditions: FIG. 19
# T1 construct: from tissue; host or cells: pooled human plasma
# T1 sequence (P00748 20-615): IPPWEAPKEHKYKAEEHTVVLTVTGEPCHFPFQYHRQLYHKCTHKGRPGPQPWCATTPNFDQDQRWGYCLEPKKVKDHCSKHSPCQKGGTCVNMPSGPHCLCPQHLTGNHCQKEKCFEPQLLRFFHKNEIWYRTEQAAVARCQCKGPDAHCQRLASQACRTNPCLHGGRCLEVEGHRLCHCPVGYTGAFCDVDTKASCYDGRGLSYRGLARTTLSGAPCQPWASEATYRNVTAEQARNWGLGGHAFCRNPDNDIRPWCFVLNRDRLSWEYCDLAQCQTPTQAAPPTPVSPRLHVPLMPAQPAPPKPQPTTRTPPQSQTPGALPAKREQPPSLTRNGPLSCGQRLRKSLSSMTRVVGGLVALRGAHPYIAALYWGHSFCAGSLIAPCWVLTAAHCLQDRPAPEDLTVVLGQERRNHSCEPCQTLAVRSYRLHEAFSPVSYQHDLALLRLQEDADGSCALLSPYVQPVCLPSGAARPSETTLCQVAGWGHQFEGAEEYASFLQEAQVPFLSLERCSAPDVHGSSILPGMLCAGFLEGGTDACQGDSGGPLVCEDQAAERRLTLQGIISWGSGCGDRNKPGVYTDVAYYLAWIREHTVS
# Description: Nat Biotech 26:669-675, 2008). […] Amidolytic activity specific for active kallikrein was determined by adding D-Pro-Phe-Arg-p-NA and following change in absorbance at […].
# IIa = assay: Anti-IIa anticoagulant activity; format: biochemical
# Xa = assay: Anti-Xa anticoagulant activity; format: biochemical
substance,measurement,setting,value
"2-O, 3-O desulfated heparin [ODSH]",up-regulation of RAGE expression by CML-BSA,[1],prevented up-regulation of RAGE expression
same,AGE-induced apoptosis,ARPE-19 cells,some protection but significant apoptosis still occurs; also recorded: reduced
"Hyaluronic acid [HA, reference compound]","MPO activities in LL-37 rosacea model, SAGE vs. HA",[2],did not alleviate
same,"inflammation in LL-37 rosacea model, SAGE vs. HA",[2],did not alleviate inflammation
heparin,concentration that activates Factor XII,[3],400 ng/mL
same,anti-IIa anticoagulant activity,IIa,150 U/mg
same,anti-Xa anticoagulant activity,Xa,150 U/mg
